Assay results published in publication PMC6094957, “BdorOR88a Modulates the Responsiveness to Methyl Eugenol in Mature Males of Bactrocera dorsalis (Hendel)” (Frontiers in Physiology, 2018).

Legend:
BdorOR88a/BdorOrco = biological target: T1, BdorOR88a/BdorOrco (Bactrocera dorsalis, UniProt A0A0G2UKI5); test: two-electrode voltage clamp, Xenopus oocytes; type: cell-based
T1 construct: gene OR88a; full-length OR88a (1,245 nt, 414 aa) co-expressed with BdorOrco from pCS2+ cRNAs in Xenopus laevis oocytes; with Odorant receptor coreceptor
T1 sequence (A0A0G2UKI5 1-414): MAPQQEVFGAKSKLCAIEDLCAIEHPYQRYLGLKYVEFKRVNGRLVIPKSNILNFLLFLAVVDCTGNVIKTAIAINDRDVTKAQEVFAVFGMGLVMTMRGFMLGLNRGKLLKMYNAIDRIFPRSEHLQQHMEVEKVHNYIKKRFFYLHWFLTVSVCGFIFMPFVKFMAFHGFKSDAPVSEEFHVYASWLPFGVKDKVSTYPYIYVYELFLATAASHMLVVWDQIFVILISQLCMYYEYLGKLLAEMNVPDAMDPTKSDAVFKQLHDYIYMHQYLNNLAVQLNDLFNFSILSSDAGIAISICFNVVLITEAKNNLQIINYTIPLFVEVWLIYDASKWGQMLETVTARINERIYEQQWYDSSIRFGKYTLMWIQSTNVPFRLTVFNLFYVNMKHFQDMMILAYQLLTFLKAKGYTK
T1 sequence (B2Z9Z0 1-473 partner): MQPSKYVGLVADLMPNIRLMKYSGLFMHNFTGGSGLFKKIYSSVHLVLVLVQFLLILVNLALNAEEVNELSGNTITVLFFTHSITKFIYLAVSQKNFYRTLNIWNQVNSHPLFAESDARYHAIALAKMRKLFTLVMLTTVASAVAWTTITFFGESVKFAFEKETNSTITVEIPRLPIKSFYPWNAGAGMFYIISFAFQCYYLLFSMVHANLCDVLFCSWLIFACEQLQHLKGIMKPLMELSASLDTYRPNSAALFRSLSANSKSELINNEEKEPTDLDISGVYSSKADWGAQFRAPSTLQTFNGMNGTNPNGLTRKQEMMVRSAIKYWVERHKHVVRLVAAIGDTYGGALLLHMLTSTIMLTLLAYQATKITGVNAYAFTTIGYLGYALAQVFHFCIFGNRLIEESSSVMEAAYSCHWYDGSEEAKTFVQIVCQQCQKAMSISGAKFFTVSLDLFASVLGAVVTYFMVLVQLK
Text: two-electrode voltage clamp, Xenopus oocytes on BdorOR88a/BdorOrco | half the maximal effective concentration

BdorOR63a-1/BdorOrco = biological target: T2, BdorOR63a-1/BdorOrco (Bactrocera dorsalis, UniProt A0A0G2UMW5); test: two-electrode voltage clamp, Xenopus oocytes; type: cell-based; conditions: weak response at 1 × 10^-3 M ME; co-expressed BdorOrco; holding potential -80 mV; Ringer's pH 7.6
T2 construct: gene OR63a-1; full-length OR63a-1 (1,248 nt, 415 aa) co-expressed with BdorOrco from pCS2+ cRNAs in Xenopus laevis oocytes; with Odorant receptor coreceptor
T2 sequence (A0A0G2UMW5 1-415): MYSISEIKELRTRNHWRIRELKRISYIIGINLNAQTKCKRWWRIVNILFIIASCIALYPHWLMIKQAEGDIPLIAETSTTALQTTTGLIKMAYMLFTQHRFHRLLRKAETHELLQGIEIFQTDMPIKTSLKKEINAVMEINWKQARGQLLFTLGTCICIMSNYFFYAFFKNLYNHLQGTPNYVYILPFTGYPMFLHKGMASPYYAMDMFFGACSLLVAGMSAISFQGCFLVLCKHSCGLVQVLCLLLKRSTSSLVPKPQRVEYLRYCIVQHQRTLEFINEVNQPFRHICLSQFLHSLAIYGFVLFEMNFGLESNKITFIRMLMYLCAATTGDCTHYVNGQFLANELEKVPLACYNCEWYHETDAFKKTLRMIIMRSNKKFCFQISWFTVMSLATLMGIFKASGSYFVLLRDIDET
T2 sequence (B2Z9Z0 1-473 partner): T1 sequence (B2Z9Z0 1-473 partner)

`C=CCc1ccc(OC)c(OC)c1` [ME, methyl eugenol] was tested, and the EC50 (BdorOR88a/BdorOrco) was 28.3 µM and the “current at 1 × 10^-3 M” value (BdorOR63a-1/BdorOrco) was ~ 30 nA.
